Experimental findings from article PMC5412352 (International Journal of Molecular Sciences, 2017) are described below.

The assay concerns the target T1, rat σ2 receptor (Rattus norvegicus, UniProt Q5U3Y7).
T1 construct: rat σ2 receptor = rat liver homogenate; from tissue; host or cells: rat liver homogenate
T1 sequence (Q5U3Y7 1-176): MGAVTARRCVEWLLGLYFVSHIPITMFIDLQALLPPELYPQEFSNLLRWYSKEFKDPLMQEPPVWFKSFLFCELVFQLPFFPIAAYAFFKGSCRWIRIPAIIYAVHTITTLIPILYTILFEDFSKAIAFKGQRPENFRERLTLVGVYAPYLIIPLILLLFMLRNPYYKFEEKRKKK
Description: Selectivity radioligand displacement, [3H]DTG, rat liver homogenate. Format: binding. The conditions noted are these: [3H]DTG + 1 µM dextrallorphan. Here is the method: […]
The incubations were terminated by rapid filtration via glass-fiber filters presoaked in PEI (0.3%, 60 min at rt), and the filter-bound radioactivity was counted by liquid scintillation counting (Tricarb, PerkinElmer).

`Cc1nc2ccc(Oc3ccc(Br)cc3F)nc2c(=O)n1C[C@H]1CCCN(C(C)C)C1` [(S)-9, (S)-6-(4-Bromo-2-fluorophenoxy)-3-((1-isopropylpiperidin-3-yl)methyl)-2-methylpyrido[3,2-d]pyrimidin-4(3H)-one]: the Ki turned out to be 87 ± 23 nM.
